Source: ChEMBL document CHEMBL5634113, “Synthesis, cytotoxic activity evaluation and mechanistic investigation of novel 3,7-diarylsubstituted 6-azaindoles” (Eur J Med Chem, 2023)
pIC50: −log10 of the molar value. Counter-ions that a name gives are not always drawn. Activity calls are given as the source filed them. The rule behind the calls is not given here.

How the values were obtained:
A-431 [1] = assay: Cytotoxicity against human A-431 cells assessed as inhibition of cell growth incubated for 72 hrs by MTT assay; format: functional, cell-based; settings: A-431, 72 h
[2] = Cytotoxicity against human AG1523 cells assessed as inhibition of cell growth incubated for 72 hrs by MTT assay; format: toxicity, cell-based
MDA-MB-231 = assay: Cytotoxicity against human MDA-MB-231 cells assessed as inhibition of cell growth incubated for 72 hrs by MTT assay; format: functional, cell-based; settings: MDA-MB-231, 72 h
HT-1080 = assay: Cytotoxicity against human HT-1080 cells assessed as inhibition of cell growth incubated for 72 hrs by MTT assay; format: functional, cell-based; settings: HT-1080, 72 h
MCF7 = assay: Cytotoxicity against human MCF7 cells assessed as inhibition of cell growth incubated for 72 hrs by MTT assay; format: functional, cell-based; settings: MCF7, 72 h
[3] = molecular target: Mitogen-activated protein kinase 3 (Homo sapiens) (UniProt P27361); assay: Inhibition of ERK1 phosphorylation at Thr202/Tyr204 residues in human A-431 cells at IC50 measured after 0 to 24 hrs by multiplex immunoassay; format: cell-based; settings: time 0-24 hrs
A-431 [4] = assay: Genotoxicity in human A-431 cells assessed as upregulation of MDM2 total protein level at IC50 measured after 0 to 24 hrs by multiplex immunoassay; format: functional, cell-based; settings: time 0-24 hrs
A-431 [5] = assay: Induction of cell cycle arrest in human A-431 cells assessed as accumulation of cells at G2/M phase at 100 nM incubated for 24 hrs by RNase/PI staining based flow cytometry analysis (reference value: 15.66%); format: functional
[6] = molecular target: Cyclin-dependent kinase inhibitor 1 (Homo sapiens) (UniProt P38936); assay: Activation of p21 waf1 in human A-431 cells assessed as increase in p21 waf1 protein level at IC50 measured after 0 to 24 hrs by Western blot analysis; format: cell-based; settings: filed as activator, time 0-24 hrs
A-431 [7] = assay: Induction of cell cycle arrest in human A-431 cells assessed as accumulation of cells at Sub-diploid phase at 100 nM incubated for 24 hrs by RNase/PI staining based flow cytometry analysis (reference value: 1.82%); format: functional
[8] = molecular target: Ribosomal protein S6 kinase alpha-1 (Homo sapiens) (UniProt Q15418); assay: Inhibition of p90 RSK phosphorylation at Ser380 residue in human A-431 cells at IC50 measured after 0 to 24 hrs by multiplex immunoassay; format: cell-based; settings: time 0-24 hrs
A-431 [9] = assay: Genotoxicity in human A-431 cells assessed as upregulation of p21 total protein level at IC50 measured after 0 to 24 hrs by multiplex immunoassay; format: functional, cell-based; settings: time 0-24 hrs
A-431 [10] = assay: Induction of cell cycle arrest in human A-431 cells assessed as accumulation of cells at G0/G1 phase at 100 nM incubated for 24 hrs by RNase/PI staining based flow cytometry analysis (reference value: 40.98%); format: functional
A-431 [11] = assay: Cytotoxicity against human A-431 cells assessed as increase in mitotic nuclei measured after 6 to 24 hrs by DAPI staining based analysis; format: functional, cell-based; settings: time 6-24 hrs
[12] = molecular target: Signal transducer and activator of transcription 3 (Homo sapiens) (UniProt P40763); assay: Inhibition of STAT3 phosphorylation at Ser727 residue in human A-431 cells at IC50 measured after 0 to 24 hrs by multiplex immunoassay; format: cell-based; settings: time 0-24 hrs
A-431 [13] = assay: Genotoxicity in human A-431 cells assessed as upregulation of ATR total protein level at IC50 measured after 0 to 24 hrs by multiplex immunoassay; format: functional, cell-based; settings: time 0-24 hrs
A-431 [14] = assay: Genotoxicity in human A-431 cells assessed as upregulation of phosphorylated Chk2 at Thr68 residue protein level at IC50 measured after 0 to 24 hrs by multiplex immunoassay; format: functional, cell-based; settings: time 0-24 hrs
A-431 [15] = assay: Induction of cell cycle arrest in human A-431 cells assessed as accumulation of cells at S phase at 100 nM incubated for 24 hrs by RNase/PI staining based flow cytometry analysis (reference value: 43.35%); format: functional
[16] = molecular target: Cellular tumor antigen p53 (Homo sapiens) (UniProt P04637); assay: Activation of p53 in human A-431 cells assessed as increase in p53 phosphorylation at Ser15 residue at IC50 measured after 0 to 24 hrs by Western blot analysis; format: cell-based; settings: filed as activator, time 0-24 hrs
A-431 [17] = assay: Genotoxicity in human A-431 cells assessed as upregulation of phosphorylated p53 at Ser15 residue protein level at IC50 measured after 0 to 24 hrs by multiplex immunoassay; format: functional, cell-based; settings: time 0-24 hrs
[18] = molecular target: Mitogen-activated protein kinase 1 (Homo sapiens) (UniProt P28482); assay: Inhibition of ERK2 phosphorylation at Thr185/Tyr187 residues in human A-431 cells at IC50 measured after 0 to 24 hrs by multiplex immunoassay; format: cell-based; settings: time 0-24 hrs
A-431 [19] = assay: Genotoxicity in human A-431 cells assessed as upregulation of phosphorylated Chk1 at Ser345 residue protein level at IC50 measured after 0 to 24 hrs by multiplex immunoassay; format: functional, cell-based; settings: time 0-24 hrs
[20] = molecular target: Dual specificity mitogen-activated protein kinase kinase 1 (Homo sapiens) (UniProt Q02750); assay: Inhibition of MEK1 phosphorylation at Ser217/Ser221 residues in human A-431 cells at IC50 measured after 0 to 24 hrs by multiplex immunoassay; format: cell-based; settings: time 0-24 hrs
Dual specificity mitogen-activated protein kinase kinase 1 (Homo sapiens), sequence (Q02750 whole entry): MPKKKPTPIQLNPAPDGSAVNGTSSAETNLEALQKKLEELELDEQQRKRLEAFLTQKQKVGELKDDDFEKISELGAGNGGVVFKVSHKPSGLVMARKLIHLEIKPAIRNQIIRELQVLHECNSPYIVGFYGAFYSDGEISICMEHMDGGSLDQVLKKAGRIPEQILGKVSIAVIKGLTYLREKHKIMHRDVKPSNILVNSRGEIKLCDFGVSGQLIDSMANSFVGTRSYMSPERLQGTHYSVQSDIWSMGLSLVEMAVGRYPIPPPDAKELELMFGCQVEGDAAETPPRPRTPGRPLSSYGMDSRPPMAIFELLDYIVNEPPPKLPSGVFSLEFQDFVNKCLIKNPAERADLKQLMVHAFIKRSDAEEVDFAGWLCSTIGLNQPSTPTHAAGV

Cellular tumor antigen p53 (Homo sapiens), sequence (P04637 whole entry, looked up): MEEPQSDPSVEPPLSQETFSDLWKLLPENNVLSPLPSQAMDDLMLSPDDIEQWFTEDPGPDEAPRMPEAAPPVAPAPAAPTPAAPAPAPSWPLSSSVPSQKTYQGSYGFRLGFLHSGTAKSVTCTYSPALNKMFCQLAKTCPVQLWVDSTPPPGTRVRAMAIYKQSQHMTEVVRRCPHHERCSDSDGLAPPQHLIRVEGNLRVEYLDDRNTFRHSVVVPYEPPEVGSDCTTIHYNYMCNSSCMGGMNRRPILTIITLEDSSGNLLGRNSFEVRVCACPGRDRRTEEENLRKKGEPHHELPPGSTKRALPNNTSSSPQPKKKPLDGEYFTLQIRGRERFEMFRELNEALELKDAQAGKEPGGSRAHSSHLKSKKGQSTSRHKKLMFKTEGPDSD
Ribosomal protein S6 kinase alpha-1 (Homo sapiens), sequence (Q15418 whole entry): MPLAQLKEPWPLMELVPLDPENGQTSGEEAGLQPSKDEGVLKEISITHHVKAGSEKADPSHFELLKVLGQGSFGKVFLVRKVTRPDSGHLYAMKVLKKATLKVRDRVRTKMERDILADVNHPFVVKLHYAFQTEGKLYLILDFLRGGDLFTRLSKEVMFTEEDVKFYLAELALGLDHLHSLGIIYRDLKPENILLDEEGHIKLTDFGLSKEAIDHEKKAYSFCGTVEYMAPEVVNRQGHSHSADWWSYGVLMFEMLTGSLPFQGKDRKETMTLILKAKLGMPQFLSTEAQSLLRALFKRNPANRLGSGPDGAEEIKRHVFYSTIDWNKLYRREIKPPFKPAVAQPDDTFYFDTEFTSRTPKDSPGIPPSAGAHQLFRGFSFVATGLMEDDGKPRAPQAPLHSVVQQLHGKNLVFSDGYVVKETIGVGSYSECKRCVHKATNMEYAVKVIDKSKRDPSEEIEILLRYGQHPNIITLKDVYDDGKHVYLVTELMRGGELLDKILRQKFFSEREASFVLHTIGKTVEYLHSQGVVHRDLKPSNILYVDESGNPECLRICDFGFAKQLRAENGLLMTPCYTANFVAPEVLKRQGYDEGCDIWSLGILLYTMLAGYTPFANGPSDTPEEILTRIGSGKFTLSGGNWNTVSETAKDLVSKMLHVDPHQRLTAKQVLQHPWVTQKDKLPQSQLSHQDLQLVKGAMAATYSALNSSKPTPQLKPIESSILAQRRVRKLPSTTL
Mitogen-activated protein kinase 3 (Homo sapiens), sequence (P27361 whole entry): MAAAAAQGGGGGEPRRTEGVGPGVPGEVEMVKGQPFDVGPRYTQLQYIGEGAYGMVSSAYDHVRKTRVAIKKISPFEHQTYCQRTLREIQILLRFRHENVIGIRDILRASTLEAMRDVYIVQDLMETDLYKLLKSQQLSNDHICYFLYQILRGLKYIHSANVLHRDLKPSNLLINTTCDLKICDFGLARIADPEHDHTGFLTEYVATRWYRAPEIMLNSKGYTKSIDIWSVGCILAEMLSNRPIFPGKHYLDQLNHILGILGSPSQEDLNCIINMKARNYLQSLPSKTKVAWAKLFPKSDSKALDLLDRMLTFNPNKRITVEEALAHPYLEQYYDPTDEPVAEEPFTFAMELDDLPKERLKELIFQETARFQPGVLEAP
Cyclin-dependent kinase inhibitor 1 (Homo sapiens), sequence (P38936 whole entry): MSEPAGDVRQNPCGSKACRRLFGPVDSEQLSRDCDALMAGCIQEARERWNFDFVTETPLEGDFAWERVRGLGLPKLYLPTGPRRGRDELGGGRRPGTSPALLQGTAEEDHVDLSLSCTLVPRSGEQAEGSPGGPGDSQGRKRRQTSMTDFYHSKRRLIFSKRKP
Mitogen-activated protein kinase 1 (Homo sapiens), sequence (P28482 whole entry): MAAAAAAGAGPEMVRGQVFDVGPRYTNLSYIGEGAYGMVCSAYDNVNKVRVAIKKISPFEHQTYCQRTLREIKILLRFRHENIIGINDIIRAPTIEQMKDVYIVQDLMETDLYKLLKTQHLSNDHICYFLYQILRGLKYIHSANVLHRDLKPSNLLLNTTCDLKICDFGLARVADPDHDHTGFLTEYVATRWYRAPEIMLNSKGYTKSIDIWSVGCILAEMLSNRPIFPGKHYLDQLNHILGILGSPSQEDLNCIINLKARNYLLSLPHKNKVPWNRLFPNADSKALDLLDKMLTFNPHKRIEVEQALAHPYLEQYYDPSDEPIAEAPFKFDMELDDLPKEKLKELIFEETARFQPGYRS
Signal transducer and activator of transcription 3 (Homo sapiens), sequence (P40763 whole entry): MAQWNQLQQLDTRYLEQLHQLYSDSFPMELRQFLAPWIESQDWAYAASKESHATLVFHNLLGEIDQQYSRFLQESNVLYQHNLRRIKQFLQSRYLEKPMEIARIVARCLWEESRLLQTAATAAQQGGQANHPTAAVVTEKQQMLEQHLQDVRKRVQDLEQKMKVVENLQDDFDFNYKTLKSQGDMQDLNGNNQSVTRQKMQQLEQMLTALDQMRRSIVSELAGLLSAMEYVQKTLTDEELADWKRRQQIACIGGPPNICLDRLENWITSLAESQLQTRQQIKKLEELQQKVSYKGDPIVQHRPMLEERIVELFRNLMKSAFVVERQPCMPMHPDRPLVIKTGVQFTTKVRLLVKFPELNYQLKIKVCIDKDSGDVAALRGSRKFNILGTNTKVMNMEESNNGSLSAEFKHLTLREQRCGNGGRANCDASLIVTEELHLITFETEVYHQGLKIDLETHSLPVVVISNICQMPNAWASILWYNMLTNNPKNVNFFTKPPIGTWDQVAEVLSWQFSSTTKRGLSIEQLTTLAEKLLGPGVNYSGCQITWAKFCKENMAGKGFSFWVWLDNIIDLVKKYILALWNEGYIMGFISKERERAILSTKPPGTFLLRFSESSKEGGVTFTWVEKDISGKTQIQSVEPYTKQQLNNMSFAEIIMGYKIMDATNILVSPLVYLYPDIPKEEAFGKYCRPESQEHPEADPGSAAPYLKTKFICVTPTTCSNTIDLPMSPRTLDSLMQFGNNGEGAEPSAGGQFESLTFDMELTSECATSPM

SMILES	pIC50 (A-431 [1])	IC50 at 72 h [2] [µM]	pIC50 (MDA-MB-231)	pIC50 (HT-1080)	pIC50 (MCF7)	further results
COc1ccc(Cn2cc(-c3ccccc3)c3ccnc(-c4cccc([N+](=O)[O-])c4)c32)cc1	< 4.00	> 100	< 4.00	< 4.00	< 4.00	
COc1ccc(Cn2cc(-c3ccccc3)c3ccnc(-c4ccccc4)c32)cc1	5.00	> 100	4.65	4.88	4.87	
COc1ccc(-c2nccc3c(-c4cccc(F)c4)c[nH]c23)c(OC)c1	7.89	56.3	7.74	7.85	6.85	inhibition [3]: Active; Activity (A-431 [4]): Active; Activity (A-431 [5]): 54.04%; Activity [6]: Active; Activity (A-431 [7]): 29.86%; inhibition [8]: Active; Activity (A-431 [9]): Active; Activity (A-431 [10]): 33%; Activity (A-431 [11]): Active; inhibition [12]: Active; Activity (A-431 [13]): Active; Activity (A-431 [14]): Active; Activity (A-431 [15]): 12.97%; Activity [16]: Active; Activity (A-431 [17]): Active; inhibition [18]: Active; Activity (A-431 [19]): Active; inhibition [20]: Active
COc1ccc(Cn2cc(-c3cccc(F)c3)c3ccnc(-c4ccc(OC)cc4OC)c32)cc1	5.27	> 100	4.74	5.06	4.94	
COc1ccc(Cn2cc(-c3ccccc3)c3ccnc(-c4ccc(Cl)cc4)c32)cc1	4.97	> 100	< 4.00	4.59	4.39	
CC(=O)c1ccc(-c2nccc3c(-c4ccccc4)c[nH]c23)cc1	7.00	> 100	6.57	6.28	6.19	Activity (A-431 [5]): 64.95%; Activity (A-431 [7]): 39.37%; Activity (A-431 [10]): 14.74%; Activity (A-431 [15]): 20.32%
COc1ccc(Cn2cc(-c3cccc(F)c3)c3ccnc(-c4cccc([N+](=O)[O-])c4)c32)cc1	< 4.00	> 100	< 4.00	< 4.00	< 4.00	
O=[N+]([O-])c1cccc(-c2nccc3c(-c4ccccc4)c[nH]c23)c1	5.59	> 100	5.36	5.51	5.48	
COc1ccc(-c2nccc3c(-c4ccccc4)c[nH]c23)c(OC)c1	7.92	79.8	7.77	7.92	7.00	Activity (A-431 [5]): 63.32%; Activity (A-431 [7]): 40.02%; Activity (A-431 [10]): 26.41%; Activity (A-431 [15]): 10.27%
Clc1ccc(-c2nccc3c(-c4ccccc4)c[nH]c23)cc1	7.70	> 100	7.29	7.25	6.46	Activity (A-431 [5]): 39.73%; Activity (A-431 [7]): 33.54%; Activity (A-431 [10]): 20.59%; Activity (A-431 [15]): 39.69%
COc1ccc(Cn2cc(-c3cccc(F)c3)c3ccnc(-c4ccccc4)c32)cc1	5.05	> 100	4.30	4.85	4.89	
CC(=O)c1ccc(-c2nccc3c(-c4cccc(F)c4)c[nH]c23)cc1	6.38	> 100	6.38	6.33	6.09	
COc1ccc(Cn2cc(-c3cccc(F)c3)c3ccnc(-c4ccc(Cl)cc4)c32)cc1	4.84	> 100	< 4.00	< 4.00	4.13	
c1ccc(-c2c[nH]c3c(-c4ccccc4)nccc23)cc1	6.27	85.1	5.82	6.10	5.61	
O=[N+]([O-])c1cccc(-c2nccc3c(-c4cccc(F)c4)c[nH]c23)c1	5.60	49	5.29	6.09	5.36	
COc1ccc(Cn2cc(-c3ccccc3)c3ccnc(-c4ccc(C(C)=O)cc4)c32)cc1	< 4.00	> 100	< 4.00	4.38	4.61	
COc1ccc(Cn2cc(-c3ccccc3)c3ccnc(-c4ccc(OC)cc4OC)c32)cc1	5.21	> 100	4.80	5.12	4.99	
Fc1cccc(-c2c[nH]c3c(-c4ccc(Cl)cc4)nccc23)c1	6.96	78.6	6.89	7.06	6.39	
Fc1cccc(-c2c[nH]c3c(-c4ccccc4)nccc23)c1	5.80	> 100	5.44	5.50	5.64	
COc1cccc2c1C(=O)c1c(O)c3c(c(O)c1C2=O)C[C@@](O)(C(=O)CO)C[C@@H]3O[C@H]1C[C@H](N)[C@H](O)[C@H](C)O1 [DOXORUBICIN HYDROCHLORIDE]	8.05		7.02	8.15	6.84	
COc1ccc(Cn2cc(-c3cccc(F)c3)c3ccnc(-c4ccc(C(C)=O)cc4)c32)cc1	4.89	> 100	4.05	4.87	5.01	
